From patent US9073851B2, “Compositions and methods for treating cancer” (Board of Regents, The University of Texas System, priority 2011, dated 2015)

Legend:
[1] = Toxicity and body weight observation in mice
MCF-7 cells = test: Apoptosis / cell death in MCF-7 cells (Annexin V, FACS); assay type: cell-based, human
Description: Apoptosis was assessed by an Annexin V assay, monitoring PARP and caspase 9 cleavage by Western blot. To provide a comparative assay of apoptosis by Annexin V labeling, tumor cells (1×10^6) treated with CaMK-III siRNA or control siRNA for 24 to 96 hours were harvested and washed with PBS. Cells were resuspended in binding buffer and stained with Annexin V and propidium iodide (PI) according to the manufacturer's protocol (BD Pharmingen Annexin V kit, San Diego, Calif.). Positive cells were detected and quantified by FACS analysis.

MDA-MB-231 cells = test: MTS cell viability/proliferation assay; assay type: cell-based, human; conditions: triple negative
From the text: Viable and dead cells were detected by the trypan blue exclusion assay, the viability and/or proliferation of cells a MTS assay was used [Akar U, et al. Autophagy 2008: 4:669-79].
Viable and dead cells were detected by the trypan blue exclusion assay, where viable cells (non-stained) with intact membrane are able to exclude the dye, while dead cells take up the coloring blue agent from the media. To quantitatively assess the viability and/or proliferation of cells a MTS assay was used, which incorporates a redox indicator that changes color in response to metabolic activity. To study cell viability in response to CaMK-III siRNA or control siRNA and plasmid encoding CaMK-III or empty plasmid transfection cells were seeded in 96-well plates at a density of 3×10^3 cells per well in 100 μl of medium. Next day the medium was removed and cells were transfected with siRNA at different concentrations in 100 μl of medium plus transfection mix. […] Plates were read at dual wavelengths (570-595 nm) in an Elisa plate reader (Kinetic Microplate Reader, Molecular Devices Corporation, Sunnyvale, Calif.).
(aka proliferation assay, in this case MTS assay was used. MTS, MTT, XTT all similar assays often used as cell viability/toxicity assay). […] Plates were read at 490 nm wavelength in an Elisa plate reader (Kinetic Microplate Reader, Molecular Devices Corporation, Sunnyvale, Calif.).

[2] = system: 5-HT1B or 5-HT1D receptor; test: Effect on cell proliferation after siRNA knockdown of 5-HT1B or 5-HT1D receptor; assay type: cell-based
5-HT1B/1D receptor = test: cAMP levels; assay type: cell-based
MDA-MB-231 tumors = test: Orthotopic MDA-MB-231 xenograft breast cancer model; assay type: in vivo, nude mice; conditions: DOPC nanoliposomal, i.v., 5.8 mg/kg twice weekly (4 weeks)
Description: FIG. 3. New role for triptan derivatives targeting the 5-HT1B receptor as a therapeutic modality for breast cancer. (A). […] Treatments, twice per week (4 weeks) were safe and effective. Methods: Phospholipid dioleoylphosphatidylcholine (DOPC) and triptan 5-NT were mixed in tertiary butanol at a lipid:5-NT ratio of 10:1 (w/w). Tween 20 was added at a ratio of 1:20 ratio (w/w) and the mixture lyophilized overnight. The powder was reconstituted in saline and sonicated for one minute. The liposome formulation was injected (100 μl) into the tail vein. (B). 5-NT induces apoptotic cell death of ER(+) MCF-7 cells. (C). […] (D). […] (E). The 5-HT1B receptor is over-expressed in triple negative highly aggressive, and metastatic breast cancer cells as well as drug resistant (i.e. tamoxifen and doxorubicin) breast cancer cells. Methods: Blots were visualized with a FluorChem 8900 imager and quantified by a densitometer using the Alpha Imager application program.
For in vivo delivery siRNA was incorporated into dioleoyl-sn-glycero-3-phosphocholine (DOPC). DOPC and siRNA were mixed in the presence of excess tertiary butanol at a ratio of 1:10 (w/w) siRNA/DOPC [Shaw L M. Methods Mol Biol 2005: 294:97-105]. Before in vivo administration, this preparation was hydrated with normal 0.9% saline in 100 μL for i.v injection per mouse. […]

eEF-2K = test: Western blot of MCF-7 cells treated with 5-NT; assay type: cell-based, human
Description: (§1) FIG. 5. 5-NT down-regulates critical pro-tumorigenic processes in ER(+) MCF-7 triple negative breast cancer cells. […] 5-NT also induces PARP cleavage and LC3-II. Methods: MCF7 cells were cultured at 37° C. in DMEM supplemented with 5% FBS in a humid incubator with 5% CO2. Following incubation with or without 5-NT cells were lysed according to standard protocols for western blotting. Blots were quantified as in FIG. 3.
as §1, with “FIG. 9.” for “FIG. 5.”, “MCF-7” for “MCF-7 triple negative”, “and LC3-II formation.” for “and LC3-II.”, “without 5-NT,” for “without 5-NT”, “FIG. 7.” for “FIG. 3.”

MCF10A = test: MTS cell viability assay on normal breast epithelium; assay type: cell-based, human; conditions: at IC50 to IC90 doses in breast cancer cells (MCF7)
From the text: (§2) (aka proliferation assay, in this case MTS assay was used. MTS, MTT, XTT all similar assays often used as cell viability/toxicity assay). Cell viability in response to compounds such as 5NT and KD06 was studied with a tetrazolium/formazan based assay (MTS, Celltiter 96 aqueous one solution cell proliferation assay, Promega, WI) [Akar U, Chaves-Reyez A, Barria g Tari A, Sanguino A, Kondo Y, Kondo S, Arun B, Lopez-Berestein G, Ozpolat B: Silencing of Bcl-2 expression by small interfering RNA induces autophagic cell death in MCF-7 breast cancer cells. Autophagy 2008, 4:669-679, Ozpolat 2007 MCR]. Cells were seeded in 96 wells plates at a density of 1.5 to 3.0×10^3 cells per well in 100 μl of medium. Next day the medium was removed and cells were treated with the drug in 100 μl of medium for 72 hours. Plates were read at 490 nm wavelength in an Elisa plate reader (Kinetic Microplate Reader, Molecular Devices Corporation, Sunnyvale, Calif.).

breast cancer cells = test: Cell viability assay, breast cancer cell panel or cell line not stated; assay type: cell-based, human; conditions: incl. MDA-468, BT20, MDa-MB231, SKBR3, MDA-MB435, T47D, ZR75.1
From the text: as §2

CCCCCCCCCOc1ccc2[nH]cc(CCN)c2c1 [5-NT, 5-nonylytryptamine]
toxicity (weight loss) ([1]; high dose of 50 mg/kg): without displaying any toxicity
body weight ([1]; liposome incorporated, i.v., 10 mg/kg, at least 15 doses, 4 weeks): did not lose any weight
induction of apoptosis (MCF-7 cells): induced robust apoptosis
cell death in combination with doxorubicin (MCF-7 cells; with a low dose of doxorubicin): synergistic cell death
inhibition of proliferation (MDA-MB-231 cells): inhibits proliferation
effect of compound after knockdown of 5-HT1B or 5-HT1D receptor [2]: blunts the effect
cAMP levels (5-HT1B/1D receptor): decrease cAMP levels
tumor growth (MDA-MB-231 tumors): significantly inhibits growth
time to down-regulation of ERK/cyclin-D, Akt/mTor, IGF1-R, Src/Fak and eEF-2K (eEF-2K): ≤ 4 h
toxicity against normal breast epithelium (MCF10A): not toxic
cell survival (O.D.) in a large panel of breast cancer cells (breast cancer cells): effective against almost all breast cancer cell lines
